The compounds below were run on rabbit skeletal myofibrils (fast skeletal myofibrils) (assay: Activation of fast skeletal myofibrils (PUMA assay, PK/LDH-coupled ATPase at pCa25)). Details: AC1.4 determined according to the procedure of Example 39; reported as class symbols.
Type: biochemical
In short: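 ATPase activity of Triton-washed rabbit skeletal myofibrils, roughly 90% fast fibres, tracked by NADH loss at 340 nm through a PK/LDH-coupled ADP-regenerating system. Calcium set to 25% of maximal activity (pCa25), in PIPES 12 mM pH 6.8 with 2 mM MgCl2 and 1 mM DTT; AC1.4 reported.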

Compound | Mean AC1.4
CCNc1n[nH]c2ccc(-c3ccc(NCC(C)(C)c4ccc(F)cc4)nn3)cc12 [{6-[3-(ethylamino)(1H-indazol-5-yl)]pyridazin-3-yl}[2-(4-fluorophenyl)-2-methylpropyl]amine] | A (A=<1 uM)
CCNc1n[nH]c2ccc(-c3ccc(NCC4(c5ncccc5F)CCC4)nn3)cc12 [{6-[3-(ethylamino)(1H-indazol-5-yl)]pyridazin-3-yl}{[(3-fluoro(2-pyridyl))cyclobutyl]methyl}amine] | A (A=<1 uM)

Second part, the compound after the results:

Mean AC1.4 | Compound
B (B=1-10 uM) | CC(C)(CNc1ccc(-c2cccc(CN)c2)nn1)c1ccc(F)cc1 [{6-[3-(aminomethyl)phenyl]pyridazin-3-yl}[2-(4-fluorophenyl)-2-methylpropyl]amine]
A (A=<1 uM) | CCNc1n[nH]c2ccc(-c3ccc(NCC4(c5ccccn5)CCC4)nn3)cc12 [{6-[3-(ethylamino)(1H-indazol-5-yl)]pyridazin-3-yl}[(2-pyridylcyclobutyl)methyl]amine]
B (B=1-10 uM) | CC(C)(CNc1ccc(-c2ccc(CN)nc2)nn1)c1ccc(F)cc1 [{6-[6-(aminomethyl)(3-pyridyl)]pyridazin-3-yl}[2-(4-fluorophenyl)-2-methylpropyl]amine]

Same assay, conditions: median AC1.4 class, procedure of Example 39

Compound | Mean AC1.4
CNC(=O)c1ccc(F)c(-c2ccc(NC[C@]3(c4ncccc4F)C[C@H](F)C3)nn2)c1 [{4-fluoro-3-[6-({[3-fluoro-1-(3-fluoro(2-pyridyl))cyclobutyl]methyl}ami-no)pyridazin-3-yl]phenyl}-N-methylcarboxamide] | A (A=<1 uM)
NCCn1nnc(-c2ccc(NCC3(c4ncccc4F)CCC3)nn2)n1 [{6-[2-(2-aminoethyl)(1,2,3,4-tetraazol-5-yl)]pyridazin-3-yl}{[(3-fluoro(2-pyridyl))cyclobutyl]methyl}amine] | D (D=>20 uM)
NCc1ccccc1-c1ccc(NCC2(c3ncccc3F)CCC2)nn1 [{6-[2-(aminomethyl)phenyl]pyridazin-3-yl}{[(3-fluoro(2-pyridyl))cyclobutyl]methyl}amine] | D (D=>20 uM)
NCc1ccc(-c2ccc(NCC3(c4ncccc4F)CCC3)nn2)cc1 [{6-[4-(aminomethyl)phenyl]pyridazin-3-yl}{[(3-fluoro(2-pyridyl))cyclobutyl]methyl}amine] | B (B=1-10 uM)
NC(c1cnc(-c2ccc(NCC3(c4ncccc4F)CCC3)nn2)s1)C(F)(F)F (centres unmarked) [{6-[5-(1-amino-2,2,2-trifluoroethyl)(1,3-thiazol-2-yl)]pyridazin-3-yl}{[(3-fluoro(2-pyridyl))cyclobutyl]methyl}amine] | B (B=1-10 uM)
NC1(c2cnc(-c3ccc(NCC4(c5ncccc5F)CCC4)nn3)s2)COC1 [{6-[5-(3-aminooxetan-3-yl)(1,3-thiazol-2-yl)]pyridazin-3-yl}{[(3-fluoro(2-pyridyl))cyclobutyl]methyl}amine] | D (D=>20 uM)
CNc1n[nH]c2ccc(-c3ccc(NC[C@]4(c5ncccc5F)C[C@H](F)C4)nn3)cc12 [{[3-fluoro-1-(3-fluoro(2-pyridyl))cyclobutyl]methyl}{6-[3-(methylamino)(1H-indazol-5-yl)]pyridazin-3-yl}amine] | A (A=<1 uM)

Results, then the compound that gave them:

Mean AC1.4 | Compound
D (D=>20 uM) | CS(=O)(=O)Nc1nccc(-c2ccc(NCC3(c4ncccc4F)CCC3)nn2)n1 [{4-[6-({[(3-fluoro(2-pyridyl))cyclobutyl]methyl}ami-no)pyridazin-3-yl]pyrimidin-2-yl}(methylsulfonyl)amine]
A (A=<1 uM) | CC(C)NC(=O)c1ccc(F)c(-c2ccc(NC[C@]3(c4ncccc4F)C[C@H](F)C3)nn2)c1 [{4-fluoro-3-[6-({[3-fluoro-1-(3-fluoro(2-pyridyl))cyclobutyl]methyl}ami-no)pyridazin-3-yl]phenyl}-N-(methylethyl)carboxamide]
A (A=<1 uM) | CS(=O)(=O)Nc1n[nH]c2ccc(-c3ccc(NC[C@]4(c5ncccc5F)C[C@H](F)C4)nn3)cc12 [{5-[6-({[3-fluoro-1-(3-fluoro(2-pyridyl))cyclobutyl]methyl}ami-no)pyridazin-3-yl](1H-indazol-3-yl)}(methylsulfonyl)amine]
C (C=10-20 uM) | NCc1ccc(F)cc1-c1ccc(NCC2(c3ncccc3F)CCC2)nn1 [{6-[2-(aminomethyl)-5-fluorophenyl]pyridazin-3-yl} {[(3-fluoro(2-pyridyl))cyclobutyl]methyl}amine]
B (B=1-10 uM) | NCc1cnc(-c2ccc(NCC3(c4ncccc4F)CCC3)nn2)s1 [{6-[5-(aminomethyl)(1,3-thiazol-2-yl)]pyridazin-3-yl}{[(3-fluoro(2-pyridyl))cyclobutyl]methyl}amine]

Same assay, conditions: median AC1.4 reported as class; procedure of Example 39

Compound | Mean AC1.4
CNC(=O)c1ccc(O)c(-c2ccc(NCC3(c4ncccc4F)CCC3)nn2)c1 [{3-[6-({[(3-fluoro(2-pyridyl))cyclobutyl]methyl}amino)pyr-idazin-3-yl]-4-hydroxyphenyl}-N-methylcarboxamide] | B (B=1-10 uM)
CN(C)C(=O)c1ccc(F)c(-c2ccc(NC[C@]3(c4ncccc4F)C[C@H](F)C3)nn2)c1 [{4-fluoro-3-[6-({[3-fluoro-1-(3-fluoro(2-pyridyl))cyclobutyl]methyl}ami-no)pyridazin-3-yl]phenyl}-N,N-dimethylcarboxamide] | B (B=1-10 uM)
CN1CC(NC(=O)c2ccc(F)c(-c3ccc(NC[C@]4(c5ncccc5F)C[C@H](F)C4)nn3)c2)C1 [{4-fluoro-3-[6-({[3-fluoro-1-(3-fluoro(2-pyridyl))cyclobutyl]methyl}ami-no)pyridazin-3-yl]phenyl}-N-(1-methylazetidin-3-yl)carboxamide] | B (B=1-10 uM)
CNC(=O)c1cc2cc(-c3ccc(NC[C@]4(c5ncccc5F)C[C@H](F)C4)nn3)ccc2[nH]1 [{5-[6-({[3-fluoro-1-(3-fluoro(2-pyridyl))cyclobutyl]methyl}ami-no)pyridazin-3-yl]indol-2-yl}-N-methylcarboxamide] | A (A=<1 uM)
CNC(=O)c1ccc(-c2ccc(NCC3(c4ncccc4F)CCC3)nn2)s1 [{5-[6-({[(3-fluoro(2-pyridyl))cyclobutyl]methyl}ami-no)pyridazin-3-yl](2-thienyl)}-N-methylcarboxamide] | B (B=1-10 uM)
Nc1ncc(-c2ccc(NC[C@]3(c4ncccc4F)C[C@H](F)C3)nn2)cc1C(F)(F)F [{6-[6-amino-5-(trifluoromethyl)(3-pyridyl)]pyridazin-3-yl}{[3-fluoro-1-(3-fluoro(2-pyridyl))cyclobutyl]methyl}amine] | B (B=1-10 uM)
COc1ncc(-c2ccc(NC[C@]3(c4ncccc4F)C[C@H](F)C3)nn2)cc1C [{[3-fluoro-1-(3-fluoro(2-pyridyl))cyclobutyl]methyl}[6-(6-methoxy-5-methyl(3-pyridyl))pyridazin-3-yl]amine] | D (D=>20 uM)

Results, then the compound that gave them:

Mean AC1.4 | Compound
A (A=<1 uM) | O=C(NCC1(O)CC1)c1cccc(-c2ccc(NC[C@]3(c4ncccc4F)C[C@H](F)C3)nn2)c1 [{3-[6-({[3-fluoro-1-(3-fluoro(2-pyridyl))cyclobutyl]methyl}ami-no)pyridazin-3-yl]phenyl}-N-[(hydroxycyclopropyl)methyl]car-boxamide]
A (A=<1 uM) | CNC(=O)c1cccc(-c2ccc(NC[C@]3(c4ncccc4F)C[C@H](F)C3)nn2)c1 [{3-[6-({[3-fluoro-1-(3-fluoro(2-pyridyl))cyclobutyl]methyl}ami-no)pyridazin-3-yl]phenyl}-N-methylcarboxamide]
B (B=1-10 uM) | O=C(NC1COC1)c1cccc(-c2ccc(NC[C@]3(c4ncccc4F)C[C@H](F)C3)nn2)c1 [{3-[6-({[3-fluoro-1-(3-fluoro(2-pyridyl))cyclobutyl]methyl}ami-no)pyridazin-3-yl]phenyl}-N-oxetan-3-ylcarboxamide]
B (B=1-10 uM) | OCc1cccc(-c2ccc(NC[C@]3(c4ncccc4F)C[C@H](F)C3)nn2)c1 [{3-[6-({[3-fluoro-1-(3-fluoro(2-pyridyl))cyclobutyl]methyl}ami-no)pyridazin-3-yl]phenyl}methan-1-ol]
B (B=1-10 uM) | CNC(=O)c1cccc(-c2ccc(NCC3(c4ncccc4F)CCC3)nn2)c1 [{3-[6-({[(3-fluoro(2-pyridyl))cyclobutyl]methyl}ami-no)pyridazin-3-yl]phenyl}-N-methylcarboxamide]
B (B=1-10 uM) | O=C(NCC(F)(F)F)c1ccc(F)c(-c2ccc(NC[C@]3(c4ncccc4F)C[C@H](F)C3)nn2)c1 [{4-fluoro-3-[6-({[3-fluoro-1-(3-fluoro(2-pyridyl))cyclobutyl]methyl}ami-no)pyridazin-3-yl]phenyl}-N-(2,2,2-trifluoroethyl)carboxamide]
A (A=<1 uM) | CNC(=O)c1ccc(F)c(-c2ccc(NCC3(c4ncccc4F)CCC3)nn2)c1 [{4-fluoro-3-[6-({[(3-fluoro(2-pyridyl))cyclobutyl]methyl}ami-no)pyridazin-3-yl]phenyl}-N-methylcarboxamide]
A (A=<1 uM) | CNC(=O)c1cc(-c2ccc(NC[C@]3(c4ncccc4F)C[C@H](F)C3)nn2)c(F)cc1O [{4-fluoro-5-[6-({[3-fluoro-1-(3-fluoro(2-pyridyl))cyclobutyl]methyl}ami-no)pyridazin-3-yl]-2-hydroxyphenyl}-N-methylcarboxamide]
B (B=1-10 uM) | CN(C)C(=O)c1cc(-c2ccc(NC[C@]3(c4ncccc4F)C[C@H](F)C3)nn2)ccc1O [{5-[6-({[3-fluoro-1-(3-fluoro(2-pyridyl))cyclobutyl]methyl}ami-no)pyridazin-3-yl]-2-hydroxyphenyl}-N,N-dimethylcarboxamide]
B (B=1-10 uM) | CNC(=O)c1cc(-c2ccc(NC[C@]3(c4ncccc4F)C[C@H](F)C3)nn2)ccc1O [{5-[6-({[3-fluoro-1-(3-fluoro(2-pyridyl))cyclobutyl]methyl}ami-no)pyridazin-3-yl]-2-hydroxyphenyl}-N-methylcarboxamide]
D (D=>20 uM) | Fc1cccnc1[C@]1(CNc2ccc(-c3ccc(NC4CC4)nc3)nn2)C[C@@H](F)C1 [{6-[6-(cyclopropylamino)(3-pyridyl)]pyridazin-3-yl}{[3-fluoro-1-(3-fluoro(2-pyridyl))cyclobutyl]methyl}amine]
